These results are taken from ChEMBL document CHEMBL3994629, “Synthesis and biological evaluation of a water-soluble phosphate prodrug salt and structural analogues of KGP94, a lead inhibitor of cathepsin L” (Bioorg Med Chem Lett, 2017).

Active and inactive are the calls of the source. The rule behind the calls is not given here. Some results are limits rather than exact numbers.

For orientation: inhibition means the relative decrease from the control value, in per cent. For orientation: IC50 means the point on the concentration scale where inhibition reaches its midpoint. Read a low IC50 as greater potency. What is called solubility is the dissolved amount per volume that the medium holds. A low value points to little dissolved substance. By GI50 is commonly meant the concentration at which growth is held to half of that of the control.

The target in data set [1] is T1, Procathepsin L (Homo sapiens, UniProt P07711). The experiment in a line: Inhibition of human liver cathepsin-L at 10 uM using Z-FR-AMC as substrate preincubated for 5 mins followed by substrate addition measured at 15 sec interval for 5 mins in presence of 0.01% Brij35 by fluorometric method relative to control.
Target sequence in this assay (P07711 114-333 limits assumed): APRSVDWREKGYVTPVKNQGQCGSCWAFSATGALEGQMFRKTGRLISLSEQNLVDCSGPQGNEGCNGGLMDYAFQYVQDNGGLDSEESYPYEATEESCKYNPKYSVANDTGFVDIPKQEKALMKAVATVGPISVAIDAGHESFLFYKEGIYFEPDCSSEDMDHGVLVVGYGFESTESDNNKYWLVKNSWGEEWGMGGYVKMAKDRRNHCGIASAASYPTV
For data set [2], the target named is T1, Procathepsin L. The experiment in a line: Inhibition of human liver cathepsin-L using Z-FR-AMC as substrate preincubated for 5 mins followed by substrate addition measured at 15 sec interval for 5 mins by fluorometric method.
Target sequence in this assay (P07711 whole entry): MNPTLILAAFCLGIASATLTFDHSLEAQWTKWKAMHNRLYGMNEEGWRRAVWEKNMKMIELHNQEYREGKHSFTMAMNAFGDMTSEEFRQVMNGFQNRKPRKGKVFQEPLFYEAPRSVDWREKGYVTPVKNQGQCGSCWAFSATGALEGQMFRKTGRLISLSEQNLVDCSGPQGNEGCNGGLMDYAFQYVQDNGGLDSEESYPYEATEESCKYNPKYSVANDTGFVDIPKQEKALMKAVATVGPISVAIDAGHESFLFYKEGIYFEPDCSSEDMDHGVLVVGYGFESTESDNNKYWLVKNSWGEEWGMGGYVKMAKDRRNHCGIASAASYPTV
Data set [3] addresses T2, Cathepsin B (Homo sapiens, UniProt P07858). Put plainly: Inhibition of human liver cathepsin-B at 10 uM using Z-RR-AMC as substrate preincubated for 5 mins followed by substrate addition measured for 5 mins by fluorometric method relative to control.
In data set [4] the target is T2, Cathepsin B. The experiment in a line: Inhibition of human liver cathepsin-B using Z-RR-AMC as substrate preincubated for 5 mins followed by substrate addition measured for 5 mins by fluorometric method.
The target of data set [5] is T1, Procathepsin L. Put plainly: Inhibition of human liver cathepsin-L at 10 uM using Z-FR-AMC as substrate preincubated for 5 mins followed by substrate addition measured at 15 sec interval for 5 mins in presence of 0.1% Tween or 0.1% CHAPS by fluorometric method relative to control.
Target sequence in this assay (P07711 114-333 limits assumed): as the sequence (P07711 114-333 limits assumed) above
Data set [6] can be described thus: Solubility in water. Format: physicochemical. The conditions noted are these: buffer.
Data set [7] is described as follows: Aqueous solubility of the compound in water at 4 g by reversed phase column chromatography. Format: physicochemical.
Data set [8] is described as follows: Stability in pH 8.6 glycine buffer assessed as compound hydrolysis after 48 hrs at 37 degC in absence of alkaline phosphatase by HPLC method.
Data set [9] can be described thus: Stability in water assessed as compound hydrolysis at 20 uM after 1 week at 4 degC by HPLC method. Format: physicochemical. The note with it: buffer, 168 h.
Data set [10] is described as follows: Retention time in pH 8.6 glycine buffer after 48 hrs at 37 degC by HPLC method.
A short description of data set [11]: Cytotoxicity against HUVEC assessed as growth inhibition after 48 hrs by SRB assay. The conditions noted are these: human, HUVEC cells. Format: cell-based. A general note: In SRB staining, fixed cells bind dye roughly in proportion to their protein.
In the next data set the test system is MDA-MB-231. The experiment in a line: Anti-migratory activity against human MDA-MB-231 cells assessed as delay in wound closure at 15 uM after 42 hrs by scratch assay. Format: functional, cell-based.
Data set [12] in a line: Prodrug activation in pH 8.6 glycine buffer assessed as KGP94 formation after 48 hrs at 37 degC in absence of alkaline phosphatase by HPLC method.
The nature of data set [13]: Prodrug activation in water assessed as assessed as KGP94 formation at 20 uM after 1 week at 4 degC by HPLC method.
The target in data set [14] is T1, Procathepsin L. Put plainly: Covalent/reversible inhibition of human liver cathepsin-L using Z-FR-AMC as substrate preincubated for 5 mins followed by substrate addition measured at 15 sec interval for 5 mins by Morrison's equation analysis. The conditions noted are these: read-out: Ki(app).
Target sequence in this assay (P07711 whole entry): as the sequence (P07711 whole entry) above
Data set [15] concerns the target T1, Procathepsin L. Put plainly: Time-dependent inhibition of human liver cathepsin-L up to 20 uM using Z-FR-AMC as substrate preincubated with enzyme followed by substrate addition by fluorometric method.
Target sequence in this assay (P07711 114-333 limits assumed): as the sequence (P07711 114-333 limits assumed) above
In data set [16] the target is T1, Procathepsin L. The experiment in a line: Time-dependent inhibition of human liver cathepsin-L assessed as association constant up to 20 uM using 10 uM Z-FR-AMC as substrate preincubated with enzyme followed by substrate addition by fluorometric method.
Target sequence in this assay (P07711 114-333 limits assumed): as above
Data set [17] deals with T1, Procathepsin L. The experiment in a line: Time-dependent inhibition of human liver cathepsin-L assessed as dissociation constant up to 20 uM using 10 uM Z-FR-AMC as substrate preincubated with enzyme followed by substrate addition by fluorometric method.
Target sequence in this assay (P07711 114-333 limits assumed): as above
Data set [18] has as its target T1, Procathepsin L. The experiment in a line: Time-dependent inhibition of human liver cathepsin-L assessed as association constant up to 20 uM using 5 uM Z-FR-AMC as substrate preincubated with enzyme followed by substrate addition by fluorometric method.
Target sequence in this assay (P07711 114-333 limits assumed): as above
Another data set concerns the target T3, Caspase-3 (Homo sapiens) (UniProt P42574).
T3 sequence (whole entry): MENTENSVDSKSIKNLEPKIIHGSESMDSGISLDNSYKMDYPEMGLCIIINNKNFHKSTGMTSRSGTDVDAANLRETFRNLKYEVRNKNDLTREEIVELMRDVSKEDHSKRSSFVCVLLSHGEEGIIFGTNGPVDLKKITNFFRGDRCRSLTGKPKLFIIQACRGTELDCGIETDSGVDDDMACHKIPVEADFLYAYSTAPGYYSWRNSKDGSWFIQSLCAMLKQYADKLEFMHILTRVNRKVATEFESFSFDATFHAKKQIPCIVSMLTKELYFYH
Put plainly: Inhibition of recombinant human caspase-3 at 1 uM using Ac-DMQD-AMC as substrate measured at 15 sec interval over 30 mins by fluorogenic assay relative to control.

Data set [19] addresses Matrix metalloproteinase-9 (Homo sapiens) (UniProt P14780). The experiment in a line: Inhibition of recombinant human MMP9 at 1 uM using NFF2 as substrate by fluorometric method relative to control.
The target is the same in data set [20]. The experiment in a line: Inhibition of recombinant human MMP9 at 10 uM using NFF2 as substrate by fluorometric method relative to control.
Data set [21] in a line: Aqueous solubility of the compound in water at 2.02 mg by reversed phase column chromatography. Format: physicochemical.

Matrix metalloproteinase-9 (Homo sapiens), sequence (P14780 whole entry): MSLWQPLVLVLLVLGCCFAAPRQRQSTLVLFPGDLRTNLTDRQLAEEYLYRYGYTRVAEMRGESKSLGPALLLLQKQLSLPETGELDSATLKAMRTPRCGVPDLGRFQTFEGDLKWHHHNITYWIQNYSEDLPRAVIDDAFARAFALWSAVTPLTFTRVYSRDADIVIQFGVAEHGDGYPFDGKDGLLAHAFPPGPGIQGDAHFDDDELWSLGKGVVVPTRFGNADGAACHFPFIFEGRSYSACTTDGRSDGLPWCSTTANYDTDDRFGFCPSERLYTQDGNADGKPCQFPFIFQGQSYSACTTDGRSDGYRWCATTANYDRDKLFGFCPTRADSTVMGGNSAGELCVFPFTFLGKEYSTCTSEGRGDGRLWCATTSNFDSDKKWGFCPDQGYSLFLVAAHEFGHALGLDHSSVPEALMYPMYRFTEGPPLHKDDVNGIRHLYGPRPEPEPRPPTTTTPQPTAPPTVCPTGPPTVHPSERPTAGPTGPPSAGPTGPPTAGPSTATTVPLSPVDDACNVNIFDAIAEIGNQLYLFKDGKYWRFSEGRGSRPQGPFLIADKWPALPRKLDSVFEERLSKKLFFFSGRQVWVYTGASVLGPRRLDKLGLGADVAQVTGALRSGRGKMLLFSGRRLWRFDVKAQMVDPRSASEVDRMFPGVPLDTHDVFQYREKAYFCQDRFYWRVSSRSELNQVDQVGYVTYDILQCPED

In the case of `COc1cc(OC)cc(/C(=N\NC(N)=S)c2cc(Br)cc(Br)c2)c1`, the inhibition is 52% at Procathepsin L [1] and over 50% against Cathepsin B [3]. The IC50 on Procathepsin L [2] is at least 10 µM; against Cathepsin B [4], over 10 µM.

Turning to `NC(=S)N/N=C(\c1cc(O)cc(O)c1)c1cccc(Br)c1`, the inhibition on Procathepsin L [1] was 23%; against Cathepsin B [3], over 50%. Further, the values for the IC50 against Procathepsin L [2] and against Cathepsin B [4] were at least 10 µM and over 10 µM, respectively.

Turning to `NC(=S)NN=C(c1cc(O)cc(Br)c1)c1cc(O)cc(Br)c1`, the results for the inhibition at Procathepsin L [1] and on Cathepsin B [3] were 40% and over 50%, respectively. Further, the IC50 against Procathepsin L [2] and against Cathepsin B [4] was over 10 µM each time.

Take `NC(=S)N/N=C(\c1cc(O)cc(O)c1)c1cc(Br)cc(Br)c1`: the inhibition on Procathepsin L [1] is 44%; against Cathepsin B [3] it was over 50%. The 50% inhibitory concentration (IC50) against Procathepsin L [2] and on Cathepsin B [4] was over 10 µM in each case.

Regarding `NC(=S)N/N=C(/c1cccc(Br)c1)c1cccc(OP(=O)([O-])[O-])c1.[Na+].[Na+]`, the inhibition is 18% at Procathepsin L [1], under 50% at Procathepsin L [5] and over 50% against Cathepsin B [3]. The compound also returned an IC50 against Procathepsin L [2] of over 10 µM. The solubility result is “Soluble” in [6] and over 400 mg/mL in [7]. The Drug degradation in data set [8] stood at 5.6%. Also, the Stability entry in data set [9] was “Stable”. The same compound registered a Retention time in [10] of 1.6 min. The GI50 at 48 h in [11] came out at 20.2 µM. Moreover, the outcome with MDA-MB-231 was Active. For the same compound, the values for the Drug metabolism result in data set [12] and in data set [13] were “Metabolite detected” and “Metabolite not detected”, respectively.

On to `NC(=S)N/N=C(\c1cccc(O)c1)c1cc(Br)cc(Br)c1`, for which the inhibition at Procathepsin L [1] was 94%; against Cathepsin B [3], over 50%. Also, the inhibition entry on Procathepsin L [5] is “Active”. Besides, the results for the IC50 at Procathepsin L [2] and against Cathepsin B [4] were 0.202 µM and over 10 µM, respectively. The Ki at Procathepsin L [14] was 0.0084 µM. Moreover, the TDI result on Procathepsin L [15] was “Active”. Moreover, the result in the data set on MDA-MB-231 was Active. Moreover, the K at Procathepsin L [16] came to 1.5 ×10³ /M/s; at Procathepsin L [17] it was 1 ×10⁻³ /s; at Procathepsin L [18], 2 ×10³ /M/s.

Take `NC(=S)N/N=C(\c1cccc(O)c1)c1cccc(Br)c1`: the inhibition at Procathepsin L [1] is 88 to 91%; on Caspase-3 (Homo sapiens) it was 4.5%; in [19], 3%; in data set [20] it was 15%. For the same compound, at Procathepsin L [5], the inhibition result was “Active”. Further, at Procathepsin L [14], the Ki is 0.0037 µM. In addition, in data set [10], the Retention time worked out at 5.4 min. Moreover, in data set [21], the solubility is under 0.67 mg/mL. Also, the outcome with MDA-MB-231 was Active.

As for `COc1cc(OC)cc(/C(=N\NC(N)=S)c2cccc(Br)c2)c1`, the inhibition on Procathepsin L [1] was 46%; against Cathepsin B [3], over 50%. Further, the IC50 at Procathepsin L [2] and on Cathepsin B [4] was over 10 µM in each case.
